Values joined by “and” are separate entries in the source; they are usually repeats but may differ in a detail not shown here. Equal values may be shown once. Read-outs that look alike come from different tables or passages of the source.
Assays:
[1] = Metabolite profiling, human hepatocytes; format: in vitro ADME
Protocol: Suspensions of cryopreserved human, rat, and monkey hepatocytes were pooled from a minimum of three individuals. All cryopreserved hepatocytes were purchased from a commercial supplier. […] The cell density was 0.5 ×10^6 viable cells/mL. The final DMSO concentration during the incubation was 0.25%. Control incubations were performed in lysed cells to reveal any non-enzymatic degradation. Two control compounds were identified in each species. Samples (50 μL) were removed from the incubation mixture at 0, 10, 20, 40, 60, and 120 min and added to methanol containing an internal standard (100 μL) to stop the reaction. The samples were centrifuged (4000 x g at 4°C for 30 min) and the supernatants at each time point were pooled for analysis by LC MS/MS using Cyprotex generic methods. Following hepatocyte stability assays, the samples were utilized for metabolite profiling. […] Metabolites were characterized using a mass spectrometer comprising Waters Xevo QT of G2-S, Acquity Binary Solvent Manager, Acquity Column Manager, and 2777 Autosampler.

[2] = Single-dose pharmacokinetics in monkeys (p.o. and i.v.); format: in vivo, monkey; details: for bioavailability: p.o. vs i.v., read-out: F (bioavailability)
[3] = Repeat-dose study in diabetic ZDF rats, serum ALT and AST; format: in vivo, rat; details: 15 and 45 mg/kg/day, 42 days
Source text: Male ZDF rats (n = 8) and ZL rats (n = 8) were aged 9 weeks and were housed 2–3 per cage within a small animal facility in accordance with the guidelines approved by the Association for Assessment and Accreditation of Laboratory Animal Care. […] All animals had ad libitum access to water during the entire study period. The animals were fed a diet of Purina Rodent LabDiet 5C08, equivalent to LabDiet 5008. Treatment-grouped rats (N = 8) underwent oral gavage with the test compound or vehicle at 10 mL/kg for 6 weeks. For fasting blood levels of ALT and AST after overnight fasting, blood was collected from the jugular vein or through a cardiac puncture (on the day of euthanasia, the last day of the study). Blood was collected in AXYGEN microtubes (MCT-150-C) for clinical blood chemistry measurements. Next, the sample was allowed to clot for a minimum of 30 min at room temperature and then centrifuged at 4°C and 4000 x g for 10 min. The resultant serum was transferred into three pre-labeled AXYGEN microtubes for blood chemistry analysis using the ADVIA 2400 chemistry system. Rats were euthanized by overdose of CO2 followed by decapitation.

[4] = Repeat-dose study in monkeys, pharmacokinetics (14 and 56 days); details: monkey; for AUC: exposure - AUC
[5] = Repeat-dose study in healthy Cynomolgus monkeys, safety (14 and 56 days)
[6] = dose 50 mg/kg, Day 1, individual animals, 50 mg/kg
[7] = dose 50 mg/kg, Day 14, individual animals, 50 mg/kg
[8] = dose 100 mg/kg, Day 1, individual animals, 100 mg/kg
[9] = dose 100 mg/kg, Day 14, individual animals, 100 mg/kg
[10] = dose 150 mg/kg, Day 1, individual animals, 150 mg/kg
[11] = dose 150 mg/kg, Day 56, individual animals, 150 mg/kg
[12] = dose 200 mg/kg, Day 1, individual animals, 200 mg/kg
[13] = dose 200 mg/kg, Day 14, individual animals, 200 mg/kg

In the case of CC#C[C@@H](CC(=O)O)c1ccc(OCC(C)=C(C)C)cc1 [CPL207280], the “number of metabolites produced by human hepatocytes” value ([1]; human hepatocytes, 10 μM) is reported as 12, the “human % of parent at 60 min” value ([1]; human hepatocytes, 10 μM CPL207280, 60 min, ND = not detected) is reported as 8.49% and the “number of metabolites identified” value ([1]; in all species (humans, rats, mice, monkeys, dogs), hepatocytes, 10 μM) is reported as 23. The “Acyl glucuronide presence in human hepatocytes” value ([1]; summary table) was “No”, the Cmax ([2]; cynomolgus, monkey, plasma, 6 mg/kg, monkey, dose 6 mg/kg, Day 1, individual animals) was 0.199 µg/mL and the plasma conc ([2]; monkey, 0,5 mg/kg i.v., 0.5 h, single animals) was 643.5 and 572.2. The plasma conc ([2]; monkey, 0,5 mg/kg i.v., 1 h, single animals) was 149.8 and 119.5, the plasma conc ([2]; monkey, 0,5 mg/kg i.v., 2 h, single animals) was 95.2 and 24.4 and 69.6 and the plasma conc ([2]; monkey, 0,5 mg/kg i.v., 4 h, single animals) was 49.5 and 52.7 and 23.2. For the same molecule, the plasma conc ([2]; monkey, 0,5 mg/kg i.v., 6 h, single animals) was 17.1 and 41 and 11.9, the plasma conc ([2]; monkey, 0,5 mg/kg i.v., 8 h, single animals) was 17.5 and 13.5 and the plasma conc ([2]; monkey, 0,5 mg/kg i.v., 12 h, single animals) was 6.2 and 10.5 and 4. The plasma conc ([2]; monkey, 0,5 mg/kg i.v., 24 h, single animals) was 1.1 and 1.6 and 0, the plasma conc ([2]; monkey, 1,5 mg/kg p.o., 0 h, single animals) was 0 and the plasma conc ([2]; monkey, 1,5 mg/kg p.o., 0.5 h, single animals) was 806.5 and 1491 and 408.8. The plasma conc ([2]; monkey, 1,5 mg/kg p.o., 1 h, single animals) was 1309.1 and 1299.9, the plasma conc ([2]; monkey, 1,5 mg/kg p.o., 2 h, single animals) was 1251.6 and 605.2 and 1177.7 and the plasma conc ([2]; monkey, 1,5 mg/kg p.o., 4 h, single animals) was 75.2 and 203.9 and 54.2. For the same molecule, the plasma conc ([2]; monkey, 1,5 mg/kg p.o., 8 h, single animals) was 31 and 109.7 and 13.2, the plasma conc ([2]; monkey, 1,5 mg/kg p.o., 12 h, single animals) was 13.7 and 53.4 and 8.1 and the plasma conc ([2]; monkey, 1,5 mg/kg p.o., 24 h, single animals) was 1.6 and 5.3 and 0. For the same molecule, the “exposure - AUC” value ([2]; monkey, dose 6 mg/kg, Day 1, individual animals, 6 mg/kg) was 31.225 µg·h/mL and 16.287 µg·h/mL, the AUC ([2]; monkey, plasma, 6 mg/kg, monkey, dose 6 mg/kg, Day 1, individual animals, read-out: exposure - AUC) was 18.2 µg·h/mL and the concentration at 0.5 h ([2]; monkey, plasma, intravenous, 0.5 mg/kg, monkey, 0,5 mg/kg i.v., 0.5 h, single animals, read-out: plasma conc) was 0.704 µg/mL. It also gave a concentration at 1 h ([2]; monkey, plasma, intravenous, 0.5 mg/kg, monkey, 0,5 mg/kg i.v., 1 h, single animals, read-out: plasma conc) of 0.198 µg/mL, a concentration at 8 h ([2]; monkey, plasma, intravenous, 0.5 mg/kg, monkey, 0,5 mg/kg i.v., 8 h, single animals, read-out: plasma conc) of 0.0102 µg/mL and a k el ([2]; monkey, plasma, intravenous, monkeys, single dose) of 5.56e-05 s⁻¹. It also gave a Cmax ([2]; monkey, plasma, iv, 0.5 mg/kg, monkeys, 0,5 mg/kg i.v., n = 3) of 3.12 ± 0.161 µg/mL, a Tmax ([2]; monkey, plasma, iv, 0.5 mg/kg, monkeys, 0,5 mg/kg i.v.) of 4.98 min and an AUC ([2]; monkey, plasma, iv, 0.5 mg/kg, monkeys, 0,5 mg/kg i.v., read-out: AUC) of 1.37 ± 0.194 µg·h/mL. The concentration at 0 h ([2]; monkey, plasma, oral, 1.5 mg/kg, monkey, 1,5 mg/kg p.o., 0 h, single animals, read-out: plasma conc) was 0 ng/mL, the concentration at 1 h ([2]; monkey, plasma, oral, 1.5 mg/kg, monkey, 1,5 mg/kg p.o., 1 h, single animals, read-out: plasma conc) was 2.25 µg/mL and the bioavailability ([2]; monkey, plasma, oral, 1.5 mg/kg, monkeys) was ~99%. It also gave a Cmax ([2]; monkey, plasma, po, 1.5 mg/kg, monkeys, 1,5 mg/kg p.o., n = 3) of 1.68 ± 0.502 µg/mL, a Tmax ([2]; monkey, plasma, po, 1.5 mg/kg, monkeys, 1,5 mg/kg p.o.) of 60 min and an AUC ([2]; monkey, plasma, po, 1.5 mg/kg, monkeys, 1,5 mg/kg p.o., read-out: AUC) of 4.06 ± 0.794 µg·h/mL. The bioavailability ([2]; monkey, plasma, po, 1.5 mg/kg, monkeys) was 99%, the “ALT and AST levels vs vehicle-treated ZDF group” value [3] was “failed to alter the ALT and AST levels” and the AUC ([4]; both, Cynomolgus, plasma, po, 100 mg/kg, dose 100 mg/kg, Day 1, individual animals) was 334 µg·h/mL. For the same molecule, the AUC ([4]; both, Cynomolgus, plasma, po, 100 mg/kg, dose 100 mg/kg, Day 14, individual animals) was 552 µg·h/mL, the Cmax ([4]; both, cynomolgus, plasma, po, 50 mg/kg, Cmax, dose 50 mg/kg, Day 1, individual animals) was 38.5 µg/mL and the Cmax ([4]; both, cynomolgus, plasma, po, 50 mg/kg, Cmax, dose 50 mg/kg, Day 14, individual animals) was 59.8 µg/mL. For the same molecule, the AUC ([4]; both, cynomolgus, plasma, po, 200 mg/kg, dose 200 mg/kg, Day 1, individual animals) was 794 µg·h/mL, the AUC ([4]; both, cynomolgus, plasma, po, 200 mg/kg, dose 200 mg/kg, Day 14, individual animals) was 919 µg·h/mL and the Cmax ([4]; both, plasma, po, 200 mg/kg, Cmax, dose 200 mg/kg, Day 1, individual animals) was 258 µg/mL. The Cmax [4, 6] was 54.2432 µg/mL and 70.1198 µg/mL and 73.0824 µg/mL, the “exposure - AUC” value [4, 6] was 85.565 µg·h/mL and 262.448 µg·h/mL and 140.708 µg·h/mL and 87.498 µg·h/mL and 100.461 µg·h/mL and 109.347 µg·h/mL and 254.256 µg·h/mL and 110.743 µg·h/mL and 146.423 µg·h/mL and 105.958 µg·h/mL and 142.73 µg·h/mL and 220.718 µg·h/mL and the Cmax [4, 7] was 77.3656 µg/mL and 85.376 µg/mL and 71.8017 µg/mL. The “exposure - AUC” value [4, 7] was 101.909 µg·h/mL and 132.812 µg·h/mL and 431.268 µg·h/mL and 124.571 µg·h/mL, the “exposure - AUC” value ([4]; dose 50 mg/kg, Day 56, individual animals, 50 mg/kg) was 150.303 µg·h/mL and 89.075 µg·h/mL and 182.055 µg·h/mL and 206.125 µg·h/mL and 124.755 µg·h/mL and 213.673 µg·h/mL and 113.523 µg·h/mL and 83.328 µg·h/mL and the Cmax [4, 8] was 47.7304 µg/mL and 196.843 µg/mL and 120.978 µg/mL and 122.802 µg/mL. For the same molecule, the “exposure - AUC” value [4, 8] was 385.402 µg·h/mL and 219.918 µg·h/mL and 309.18 µg·h/mL, the Cmax [4, 9] was 59.7137 µg/mL and 97.7733 µg/mL and 114.927 µg/mL and 30.391 µg/mL and the “exposure - AUC” value [4, 9] was 540.113 µg·h/mL and 349.314 µg·h/mL and 371.77 µg·h/mL. The Cmax [4, 10] was 174.84 µg/mL and 194.31 µg/mL and 41.31 µg/mL and 61.81 µg/mL and 148.23 µg/mL and 203.64 µg/mL and 215.41 µg/mL and 167.94 µg/mL, the “exposure - AUC” value [4, 10] was 687.155 µg·h/mL and 716.453 µg·h/mL and 299.365 µg·h/mL and 303.408 µg·h/mL and 583.353 µg·h/mL and 708.01 µg·h/mL and 517.538 µg·h/mL and 598.748 µg·h/mL and the Cmax [4, 11] was 206.99 µg/mL and 230.13 µg/mL and 188.65 µg/mL and 99.77 µg/mL and 256.14 µg/mL and 172.69 µg/mL and 25.09 µg/mL and 47.76 µg/mL. The “exposure - AUC” value [4, 11] was 476.098 µg·h/mL and 561.835 µg·h/mL and 462.75 µg·h/mL and 833.928 µg·h/mL and 555.34 µg·h/mL and 670.743 µg·h/mL and 435.418 µg·h/mL and 360.168 µg·h/mL, the Cmax [4, 12] was 146.587 µg/mL and 153.261 µg/mL and 191.742 µg/mL and the “exposure - AUC” value [4, 12] was 842.687 µg·h/mL and 783.604 µg·h/mL and 691.713 µg·h/mL. The Cmax [4, 13] was 263.213 µg/mL and 90.4785 µg/mL and 181.854 µg/mL and 224.986 µg/mL, the “exposure - AUC” value [4, 13] was 610.926 µg·h/mL and 654.718 µg·h/mL and 646.623 µg·h/mL and the “exposure - AUC” value ([4]; dose 250 mg/kg, Day 1, individual animals, 250 mg/kg) was 1583.82 µg·h/mL and 721.808 µg·h/mL and 793.135 µg·h/mL and 1183 µg·h/mL and 1366.178 µg·h/mL and 895.14 µg·h/mL and 850.363 µg·h/mL and 1425.683 µg·h/mL and 1258.01 µg·h/mL and 575.98 µg·h/mL and 469.06 µg·h/mL and 783 µg·h/mL. The “exposure - AUC” value ([4]; dose 250 mg/kg, Day 56, individual animals, 250 mg/kg) was 1170.11 µg·h/mL and 1015.218 µg·h/mL and 686.383 µg·h/mL and 1887.035 µg·h/mL and 975.73 µg·h/mL and 1235.128 µg·h/mL and 1213.253 µg·h/mL and 997.608 µg·h/mL and 1100.488 µg·h/mL and 1004.075 µg·h/mL and 831.145 µg·h/mL and 1255.683 µg·h/mL, the liver safety parameters ([5]; 50–250 mg/kg/day, 14 and 56 days) was “No alteration of liver safety parameters” and the “hepatocyte hypertrophy and liver mass” value ([5]; after the 14 and 56-day treatment) was “neither hypertrophy nor increased liver mass was observed”.
